Binding, Inhibition and Km data for 1 compound are collected here from ChEMBL document CHEMBL1128089, “A carbene-generating biotinylated lactosylceramide analog as novel photoreactive substrate for GM3 synthase” (Bioorg Med Chem Lett, 1995).

Values joined by “and” are separate entries in the source; they are usually repeats but may differ in a detail not shown here. Equal entries are not always repeated.

The term Inhibition denotes the relative decrease from the control value, in per cent. A higher Inhibition goes with strong suppression. As a reminder, the Km is the concentration of substrate that gives half-maximal velocity.

Series [1] is filed under the species Rattus norvegicus. The series is described as follows: Evaluation of competition between CDH and compound using [3H]NANA as ligand in sialyltransferase assay at a concentration of 0.18 mM.
The species named for series [2] is Rattus norvegicus. Briefly: Evaluation of inhibition of CDH sialylation by the compound at a concentration of 0 mM. Format: functional.
The species named for series [3] is Rattus norvegicus. Briefly: Evaluation of inhibition of CDH sialylation by the compound at a concentration of 0.9 mM. The class given is functional.
Series [4] in a line: Km from Lineweaver-Burke plot. The class given is ADME.
Series [5] is filed under the species Rattus norvegicus. Briefly: Evaluation of competition between CDH and compound using [3H]NANA as ligand in sialyltransferase assay at a concentration of 0.90 mM.

Consider `O=C(CCCC[C@@H]1SC[C@@H]2NC(=O)N[C@@H]21)NCCCC[C@H](NC(=O)c1ccc(C2(C(F)(F)F)N=N2)cc1)C(=O)NCCO[C@@H]1O[C@@H](CO)[C@@H](O[C@@H]2O[C@@H](CO)[C@H](O)[C@H](O)[C@@H]2O)[C@H](O)[C@@H]1O`, for which the Binding was 3850 dpm and 9480 dpm in the series filed under Rattus norvegicus [1]; 8610 dpm in the series filed under Rattus norvegicus [5]. Besides, the Inhibition is 0% in the series filed under Rattus norvegicus [2] and 64% in the series filed under Rattus norvegicus [3]. The Km in series [4] amounted to 180 µM.
